# Reference: paper PMC9250890 (Cell Reports, 2022)
# “Also recorded” adds a separate entry of the source. Where a name gives a salt, the structure may show the parent alone.
# Legend:
# [1] = system: endogenous Cl- currents in HEK 293 cells; conditions: ref Braga et al., 2021; cited from earlier work
# [2] = system: HeLa-ACE2 cells; experiment: SARS2-PsV-induced PS externalization in HeLa-ACE2 cells; assay type: cell-based; conditions: for SARS2-PsV-induced PS externalization: 1 h
# [3] = target: T1, human ANO6 (Homo sapiens, UniProt Q4KMQ2); experiment: YFP fluorescence quenching-based anion channel assay, FRT-ANO6 cells; assay type: cell-based; conditions: ANO1, ANO2 and ANO6
# T1 sequence (Q4KMQ2 1-931 isoform Q4KMQ2-2): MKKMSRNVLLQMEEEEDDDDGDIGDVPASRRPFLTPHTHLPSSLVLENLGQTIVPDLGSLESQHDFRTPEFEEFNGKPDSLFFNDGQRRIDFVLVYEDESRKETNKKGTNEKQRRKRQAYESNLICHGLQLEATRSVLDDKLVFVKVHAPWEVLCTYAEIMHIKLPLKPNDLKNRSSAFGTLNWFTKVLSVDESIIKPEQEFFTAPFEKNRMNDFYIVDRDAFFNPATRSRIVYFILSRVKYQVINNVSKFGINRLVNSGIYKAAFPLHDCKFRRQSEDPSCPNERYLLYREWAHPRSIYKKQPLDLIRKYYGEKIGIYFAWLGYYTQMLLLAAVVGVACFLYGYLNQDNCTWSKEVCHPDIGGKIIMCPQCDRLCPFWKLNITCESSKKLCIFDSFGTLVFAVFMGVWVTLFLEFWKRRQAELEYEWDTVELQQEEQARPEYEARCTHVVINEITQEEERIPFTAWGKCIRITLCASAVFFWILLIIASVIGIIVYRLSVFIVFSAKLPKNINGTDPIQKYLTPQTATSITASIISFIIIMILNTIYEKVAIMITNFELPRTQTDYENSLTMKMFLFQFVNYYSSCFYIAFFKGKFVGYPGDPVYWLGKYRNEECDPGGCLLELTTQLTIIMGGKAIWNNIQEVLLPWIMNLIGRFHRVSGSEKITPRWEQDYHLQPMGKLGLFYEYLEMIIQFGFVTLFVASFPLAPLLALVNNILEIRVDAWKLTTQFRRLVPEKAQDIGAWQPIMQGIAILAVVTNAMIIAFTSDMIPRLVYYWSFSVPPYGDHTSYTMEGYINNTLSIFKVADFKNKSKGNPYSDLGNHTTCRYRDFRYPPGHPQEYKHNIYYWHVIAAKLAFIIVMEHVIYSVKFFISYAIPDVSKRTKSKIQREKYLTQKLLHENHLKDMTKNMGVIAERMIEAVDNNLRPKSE
# [4] = system: cytosolic Ca2+ signals; experiment: Ionomycin-induced cytosolic Ca2+ signals; assay type: cell-based; conditions: at 30 μM
# [5] = system: SARS-CoV-2 Spike pseudotyped virus (SARS2-PsV); experiment: microbe, parasite or virus in culture; assay type: cell-based; conditions: BAPTA-AM 10 μM
# [6] = system: HEK 293T-ACE2-TMPRSS2 cells; experiment: SARS2-PsV-induced cytosolic Ca2+ signals; assay type: cell-based; conditions: pretreatment: BAPTA-AM 3 μM, camostat 10 μM, A6-001 10 μM
# [7] = system: HeLa-ACE2 cells; experiment: Authentic SARS-CoV-2-induced PS externalization in HeLa-ACE2 cells; assay type: cell-based; conditions: 10 μM; 1 h pretreatment; 10 MOI
# [8] = system: cytosolic Ca2+ signals; conditions: ref Braga et al., 2021; cited from earlier work
# [9] = system: PS scrambling induced by ionomycin; experiment: Ionomycin-induced PS scrambling, camostat control; assay type: cell-based; conditions: camostat 100 μM, 1 h prior; ionomycin 10 μM, 10 min
# [10] = system: SARS-CoV-2; conditions: HeLa-ACE2 cells; ref Shang et al., 2020; cited from earlier work
structure (smiles),measurement,setting,value
CC(C)/N=c1\cc2n(-c3ccc(Cl)cc3)c3ccccc3nc-2cc1Nc1ccc(Cl)cc1 [clofazimine],endogenous Cl- currents / Cl- channel activities,[1],did not affect
"CCOC(=O)c1c(NCc2ccc(SC)cc2)c2cccc(C)c2[nH]c1=O [A6-004, ethyl 8-methyl-4-((4-(methylthio)benzyl)amino)-2-oxo-1,2-dihydroquinoline-3-carboxylate]",SARS2-PsV-induced PS externalization,[2]; 10 μM,strongly inhibited; also recorded: inhibit
same,IC50 on all examined ANOs,[3],micromolar ranges
same,ionomycin-induced cytosolic Ca2+ signals,[4],partially reduced
CC[C@@H](C(=O)[C@@H](C)[C@@H](O)[C@H](C)[C@@H]1O[C@@H]([C@@H](CC)C(=O)O)CC[C@@H]1C)[C@H]1O[C@]2(C=C[C@@H](O)[C@]3(CC[C@@](C)([C@H]4CC[C@](O)(CC)[C@H](C)O4)O3)O2)[C@H](C)C[C@@H]1C [salinomycin],endogenous Cl- currents / Cl- channel activities,[1],did not affect
"CC(=O)OCOC(=O)CN(CC(=O)OCOC(C)=O)c1ccccc1OCCOc1ccccc1N(CC(=O)OCOC(C)=O)CC(=O)OCOC(C)=O [BAPTA-AM, reference compound]",SARS2-PsV-induced PS externalization,[2]; 10 μM,nullified; also recorded: inhibits
same,single-round infection of SARS2-PsV,[5],significantly reduced
same,SARS2-PsV-induced cytosolic Ca2+ signals,[6],nullified
same,authentic SARS-CoV-2 virus-evoked PS scrambling,[7],suppressed
O=C(Nc1ccc([N+](=O)[O-])cc1Cl)c1cc(Cl)ccc1O [niclosamide],cytosolic Ca2+ signals,[8],reduced
same,endogenous Cl- currents / Cl- channel activities,[1],partial inhibitory effect
"CN(C)C(=O)COC(=O)Cc1ccc(OC(=O)c2ccc(NC(=N)N)cc2)cc1 [camostat, camostat mesylate, reference compound]",SARS2-PsV-induced PS externalization,[2]; 100 μM,reduced; also recorded: inhibits
same,PS externalization evoked by trypsin-pretreated SARS2-PsV,"[2]; trypsin 10 μg/mL, 10 min, 37°C",but not by trypsinized SARS2-PsV
same,SARS2-PsV-induced cytosolic Ca2+ signals,[6],significantly reduced
same,PS scrambling induced by ionomycin,[9],did not affect
same,SARS-CoV-2 cell entry,[10],inhibits
